The nature of data set [1]: ELF pharmacokinetics of colistin and CMS after nebulization (micro-BAL, LC-MS/MS). Type of data set: in vivo, ICU patients. Here is the method: According to patients’ respiratory status, two micro-bronchoalveolar lavages (BALs) (40 mL of sterile 0.9% saline solution were blindly instilled through a telescopic catheter and immediately aspirated in a trap) were performed at steady state, before nebulization and 1 h after the end. ELF colistin concentration (COLELF) was calculated from BAL concentration (COLBAL) using urea as a dilution marker: COLELF = COLBAL X urea dilution index (plasma urea concentration/BAL urea concentration).
Purification and separation of colistin and CMS were performed using and modifying the Gobin assay. BAL samples were extracted by solid-phase extraction followed by evaporation to dryness and reconstitution in mobile phase. The chromatographic separation was carried out on an AQUITY UPLC C18 column. Polymyxin B was used as internal standard. The detection was performed on a triple quadrupole tandem mass spectrometer using multi-reaction monitoring via an electrospray ionization source with positive ionization mode.

Data set [2] in a line: Safety and adverse events of colistin nebulization (DHHS-CTCAE version 3.0). It is filed as in vivo, ICU patients. The following applies: 5 MIU q8, vibrating mesh nebulizer; 134 patients, 1376 days of nebulization. Here is the method: Patients received 5 MIU of CMS (Colimycine®, Sanofi, Paris, France) dissolved in 6 mL of saline solution by nebulization over 30 min using a vibrating-mesh nebulizer (Aeroneb Pro®, Aerogen, Galway, […]) every 8 h. Solutions for nebulization were freshly prepared. During aerosol delivery, all patients were sedated and received assisted/controlled mechanical ventilation with a tidal volume of 6–8 mL/kg of predicted body weight and respiratory rates of 12–15 cycles/min. The humidifier was removed and the nebulizer was inserted near the Y-piece connector on the inspiratory arm
VAP, septic shock, and acute kidney injury requiring continuous […] replacement therapy were defined according to current recommendations. VAP was diagnosed in the presence of radiological and clinical signs consisting of a new and persistent infiltrate on the chest radiograph associated with two of the three following criteria: purulent tracheal aspirates, hyperthermia > 38 °C or hypothermia < 36 °C, and peripheral leukocytosis > 10,000/μL or < 1500/μL. […] Safety and adverse events (AE) were determined through the biochemical abnormalities documented in medical records according to the Department of Health and Human Services—Common Terminology Criteria for Adverse Events (DHHS-CTCAE version 3.0) classification. […]

Data set [3] relates to Acinetobacter baumannii isolates. Description: Minimum inhibitory concentration of AB isolates. It is filed as cell-based. The following applies: median [interquartile range]; values available for 79 patients; Micronaut AST system-based BMD, VITEK 2 AST-N397 card; EUCAST version 11.0. Here is the method:
AB isolates were identified by using matrix-assisted laser desorption ionization-time of flight mass spectrometry (MALDI-TOF MS). Minimum inhibitory concentrations (MICs) were determined by a Micronaut AST system-based BMD, VITEK 2 AST-N397 card, according to the manufacturer’s instructions. EUCAST (version 11.0, 2021) clinical breakpoints were used to interpret MICs.

The conditions of data set [4]: cited from earlier work. How it is done: Despite the recent introduction of new antibiotics against difficult-to-treat bacteria, colistin is still used in the critically ill setting, especially as part of combination therapies. This drug is a antibiotic; it is administered as intravenous colistimethate (CMS) and then undergoes extensive plasmatic hydrolysis. CMS is mainly metabolized by the renal route apart from the amount that is modified to colistin. This agent is cleared by extra-renal, yet unknown, mechanisms, but its plasmatic levels may increase in the presence of renal failure due to the reduced clearance a ... || From a pharmacokinetic standpoint, CMS nebulization may overcome its negligible ELF penetration after intravenous administration. Although many factors may interfere with the reliability of the detected lung antibiotics concentration, including the diagnostic technique, the binding to inflammatory molecules, and the heterogeneity of lung aeration, it is widely accepted that CMS nebulization is the only strategy to obtain alveolar levels above MIC for mostly Gram-negative MDR pathogens. When treating VAP due to COS bacteria, a correct drug dose and nebulizer strategy should be reco ...

The subject of data set [5] is multidrug-resistant / COS Gram-negative VAP. To be noted: cited from earlier work. The text has this: There is pre-clinical evidence to support vibrating-mesh nebulizers, over jet and ultrasonic ones.
The conditions of data set [6]: in vivo; cited from earlier work. An excerpt:
In addition, the observed safety profile may be further improved by correct CMS ...

[7] abbreviates: following 24 h of dosing, vibrating meshes, ten patients with MDR VAP.
The mark [8] stands for this setting: 326 patients with COS Gram-negative VAP, aerosolized 2 MIU q 8 h, jet nebulizer.

“Also recorded” adds a separate entry of the source. Peptide text beside a SMILES is read from it.

For `CC[C@H](C)CCCCC(=O)N[C@@H](CCN)C(=O)N[C@H](C(=O)N[C@@H](CCN)C(=O)N[C@H]1CCNC(=O)[C@H]([C@@H](C)O)NC(=O)[C@H](CCN)NC(=O)[C@H](CCN)NC(=O)[C@H](CC(C)C)NC(=O)[C@@H](CC(C)C)NC(=O)[C@H](CCN)NC1=O)[C@@H](C)O` [colistin] (HELM PEPTIDE1{[CC[C@H](C)CCCCC(=O)[*:2]].[Dab].T.[Dab].[Dab].[Dab].[dL].L.[Dab].[Dab].T}$PEPTIDE1,PEPTIDE1,5:R3-11:R2$$$V2.0), the “ELF concentration one hour after nebulization” value in data set [1] (median [IQR], 7 patients, after 72 h of nebulized therapy (CMS 5 MIU q8), micro-BAL, urea dilution index, UPLC C18, tandem MS) was 121.7 [40.1–143.1] mcg/mL. In data set [1] (nebulized CMS 5 MIU q8), the “ELF colistin concentrations relative to CRAB minimal-inhibitory concentration (in words)” value is on record as “far above”. Moreover, the “Drug-related / pulmonary adverse events of nebulization (in words)” value in data set [2] is “did not observe any; also recorded: without observing any”. The MIC in data set [3] is 1 [0.5–1] mcg/mL. In addition, in data set [4] (20 patients, 1 MIU nebulization, jet and ultrasonic machines, samples at 1 h after the aerosol), the “Samples with colistin ELF concentrations above 10 mcg/mL” value was 25%. Further, in data set [4] (setting [7]), the “Trough-predicted colistin ELF level, 3 MII nebulized CMS” value is 120.4 µg/mL and the “Trough-predicted colistin ELF level, 5 MIU nebulized CMS” value is 200.7 µg/mL. The “ELF penetration after intravenous administration (in words)” value in data set [4] is recorded as “minimal”.

For colistimethate [CMS], the “Clinical cure rate vs controls treated with intravenous antibiotics (in words)” value in data set [5] (5 MIU q8 h, vibrating plate nebulizer, 44 patients with multidrug-resistant AB and Pseudomonas aeruginosa vs 122 controls) was “similar”. In data set [5] (setting [8]), the “DAY-14 clinical failure rate (in words)” value is recorded as “significantly lower” and the “Mortality (in words)” value is reported as “without affecting”. Besides, in data set [6], the Bronchospasm is 2%, the “Episodes of bronchospasm (in words)” value is “did not report any”, the Neuromuscular toxicity is 3% and the “Reduction in the rate of renal failure” value is given as 33%. Also, the “Drug-related / pulmonary adverse events of nebulization (in words)” value in data set [2] is on record as “did not observe any”. In data set [4], the “ELF penetration after intravenous administration (in words)” value is “negligible”.

(Values after publication PMC9855104, “Use of High-Dose Nebulized Colistimethate in Patients with Colistin-Only Susceptible Acinetobacter baumannii VAP: Clinical, Pharmacokinetic and Microbiome Features” (Antibiotics, 2023).)
